Consider nine compounds from article PMC7018034, “Antimicrobial activity of Ib-M peptides against Escherichia coli O157: H7” (PLoS ONE, 2020).

In data set [1] the test system is E. coli O157: H7 clinical isolate (AC188). Description: microbe, parasite or virus in culture. In kind it is cell-based, Escherichia coli O157: H7. Here is the method: (§1) MBC was determined as described in the M26-A protocol of the CLSI, 1999 [13]. […] Blood agar cultures were incubated at 35 ± 2°C for 18–24 hours, and the number of CFU was estimated.
Data set [2] relates to E. coli O157: H7 (ATCC 43888). Description: microbe, parasite or virus in culture. In kind it is cell-based, Escherichia coli O157: H7. Here is the method:
as §1

Data set [3] has as its system E. coli O157: H7 clinical isolate (AC188). Put plainly: microbe, parasite or virus in culture. In kind it is cell-based, Escherichia coli O157: H7. To be noted: for SI (selectivity index) E. coli O157: H7 AC188: ratio CC50 in VERO cells / MIC in AC188, maximum evaluated concentration used where CC50 not determined. Here is the method: (§2) MIC was determined using the microdilution method as described in protocol M07-A9 of the Clinical and Laboratory Standards Institute. Briefly, 1:2 serial dilutions of Ib-M peptides in MHB were placed in a 96-well round-bottom plate at concentrations ranging from 100 to 0.05 μM; or reference antibiotics STP and GNT between 200 to 0.1 μM. The bacterial inoculum was prepared from a subculture of E. coli O157: H7 (ATCC 43888 or AC188) in LBB incubated for 18–24 hours at 35 ± 2°C before to the test. The bacteria suspension was diluted to 1x10^8 colony forming units (CFU)/mL, to obtain a turbidity equivalent to 0.5 on the McFarland scale, confirmed by spectrophotometry upon reaching an absorbance between 0.08–0.1 at a wavelength of 625 nm; then a 1:200 dilution in MHB was performed to obtain a final concentration of 5x10^5 CFU/mL. The diluted bacterial suspension was added to the 96-well plate containing the serially diluted peptides. The final volume of 200 μL per well consisted of 100 μl of the compound and 100 μL of diluted bacteria suspension. Negative and positive growth controls were performed by adding only MHB or E. coli O157: H7 with MHB to the wells, respectively. At the end of the incubation time, MIC was determined as the lowest compound concentration at which no bacterial growth was observed.

Data set [4] concerns E. coli O157: H7 (ATCC 43888). Put plainly: microbe, parasite or virus in culture. To be noted: for SI (selectivity index) E. coli O157: H7 ATCC 43888: ratio CC50 in VERO cells / MIC in ATCC 43888, maximum evaluated concentration used where CC50 not determined. In kind it is cell-based, Escherichia coli O157: H7. Here is the method:
as §2

A further data set deals with VERO cells (ATCC CCL-81). Description: Cytotoxicity, MTT. The data set is classed as cell-based. To be noted: 24 h exposure, 595 nm, mean ± S.D., triplicate in two independent experiments. Here is the method: VERO cells at a concentration of 3x10^4 cells/mL were plated in 96 flat-bottom wells and incubated for 24 hours at 37°C in a 5% CO2 atmosphere. Subsequently, the cells were exposed to 1:2 serial dilutions of Ib-M peptides in the range from 400 to 1.6 μM and the reference antibiotics between 3200 and 1.6 μM. Control cells were maintained without peptides or reference antibiotics. After 24 hours of incubation, VERO cells viability was determined using the MTT (3- (4,5-dimethiazol-2-yl) -2,5-diphenyltetrazole bromide) colorimetric technique (Mosmann, 1983). To do so, 20 μL/well of MTT was added at a concentration of 5 mg/mL and incubated for 4 hours. After that time, the culture medium was removed from the wells, and 100 μL of dimethylsulfoxide was added to solubilize the formazan crystals. Absorbance was determined by spectrophotometry using a wavelength of 595 nm.
The 50% cytotoxic concentrations (CC50) were calculated by sigmoid regression analysis from the inhibition percentages using the XLFit program (^©2019 IDBS). The Selectivity Index (SI) was calculated as the ratio between CC50 in VERO cells and the MICs in E. coli O157: H7 [17]. For those compounds whose CC50 could not be determined, the maximum evaluated concentration was used to calculate the respective SI.

Data set [5] relates to E. coli O157: H7 (ATCC 43888). In kind it is cell-based, Escherichia coli O157: H7. The conditions noted are these: lag phase, 0.5xMIC, at 24 hour, turbidity at 595 nm. Here is the method:
The kinetics of cell growth of E. coli O157: H7 in the presence of the peptides were followed during 24 hours. The tests were performed with the reference strain ATCC 43888, and the antibacterial activity of the compounds was evaluated in the latency phase (lag phase) and the logarithmic phase (log phase).
For the lag phase, E. coli O157: H7 at 5x10^5 CFU/mL with MHB in 96-well plate was treated with Ib-M peptides at a concentrations of 0.5xMIC, 1xMIC, 2xMIC in a final volume of 200 μL/well for 24 hours at 37°C. The turbidity was determined spectrophotometrically at 595 nm for samples taken at 0, 2, 4, 6, 8, 10, 12 and 24 hours.

For the next data set, the system named is E. coli. Set-up: method as in PMID 29671805, PMID 19952307. The conditions noted are these: in vitro activity reported against E. coli; cited from earlier work.
[6] abbreviates: clinical isolate AC188, colony count <= 10 on blood agar, mean ± S.D., triplicate in two independent experiments.
Setting [7] is: strain ATCC 43888, colony count <= 10 on blood agar, mean ± S.D., triplicate in two independent experiments.
The mark [8] stands for this setting: clinical isolate AC188, MHB, 5x10^5 CFU/mL, mean ± S.D., triplicate in two independent experiments.
The mark [9] stands for this setting: strain ATCC 43888, MHB, 5x10^5 CFU/mL, mean ± S.D., triplicate in two independent experiments.

≈ marks a conversion by molar mass, not a printed value. Where “and” joins values, the source holds several entries; their conditions need not be identical. Equal entries are not always repeated. Ends that are not written are not given here.

`CNC(C)C1CCC(N)C(OC2C(N)CC(N)C(OC3OCC(C)(O)C(NC)C3O)C2O)O1` (stereo not shown) [GNT, Gentamicin, reference compound]: the MBC turned out to be 4.2 ± 1.6 µM (≈ 2.01 µg/mL) in data set [1] (Escherichia coli) and 4.7 ± 1.7 µM (≈ 2.24 µg/mL) in data set [2] (Escherichia coli, ATCC43888). The MIC in data set [3] (Escherichia coli) is 2.3 ± 0.9 µM (≈ 1.1 µg/mL); in data set [4] (Escherichia coli, ATCC43888), 1.8 ± 0.6 µM (≈ 0.86 µg/mL). Besides, in data set [3], the “SI (selectivity index) E. coli O157: H7 AC188” value was >1391.3. Moreover, in data set [4], the “SI (selectivity index) E. coli O157: H7 ATCC 43888” value was >1777.8. Moreover, the “CC50 VERO Cells” value with VERO cells (ATCC CCL-81) was > 3200 µM and >3200 ± 0 µM.
On to `[H]/N=C(/N)N[C@H]1[C@H](O)[C@@H](O)[C@H](O[C@@H]2O[C@@H](C)[C@](O)(C=O)[C@H]2O[C@@H]2O[C@@H](CO)[C@H](O)[C@@H](O)[C@@H]2NC)[C@@H](N/C(N)=N\[H])[C@@H]1O` [STP, Streptomycin, reference compound], for which the MBC worked out at 108 µM (≈ 63 µg/mL) in data set [1] (Escherichia coli); 108.3 ± 49.2 µM (≈ 63 µg/mL) in data set [1] (setting [6]); 11.5 µM (≈ 6.69 µg/mL) in data set [2] (Escherichia coli, ATCC43888); 11.5 ± 2.6 µM (≈ 6.69 µg/mL) in data set [2] (setting [7]). Besides, the MIC in data set [3] (Escherichia coli) amounted to 66.7 µM (≈ 38.8 µg/mL); in data set [3] (setting [8]) it was 66.7 ± 25.8 µM (≈ 38.8 µg/mL); in data set [4] (Escherichia coli, ATCC43888), 9.4 µM (≈ 5.47 µg/mL); in data set [4] (setting [9]), 9.4 ± 3.4 µM (≈ 5.47 µg/mL). In addition, in data set [3], the “SI (selectivity index) E. coli O157: H7 AC188” value was >48. The “SI (selectivity index) E. coli O157: H7 ATCC 43888” value in data set [4] is recorded as >340.4. The “CC50 VERO Cells” value with VERO cells (ATCC CCL-81) is >3200 ± 0 µM.
For EWGRRMMGRGPGRRMMRRWW-NH2 [Ib-M4], the MBC in data set [1] (setting [6]) came to 15.6 ± 10.3 µM; in data set [2] (setting [7]) it was 22.9 ± 5.1 µM. The MIC in data set [3] (setting [8]) was 6.3 ± 0.0 µM; in data set [4] (setting [9]), 12.5 ± 0.0 µM. For the same compound, in the data set with VERO cells (ATCC CCL-81), the “CC50 VERO Cells” value is > 400 ± 0.0 µM.
As to EWGRRMMGRGPGRRMMRWWR-NH2 [Ib-M1], the MBC in data set [1] (setting [6]) is 3.7 ± 1.3 µM; in data set [2] (setting [7]), 6.3 ± 0.0 µM. Further, the “percentage of E. coli growth inhibition” value in data set [5] was “higher than 63%”. The MIC is 1.6 ± 0.0 µM in data set [3] (setting [8]) and 4.7 ± 1.7 µM in data set [4] (setting [9]). The “CC50 VERO Cells” value in the data set with VERO cells (ATCC CCL-81) was found to be 395.2 ± 18.3 µM.
Turning to EWGRRMMGWGRGRRMMRRWW-NH2 [Ib-M6], the MBC in data set [1] (setting [6]) amounted to 10.4 ± 3.2 µM; in data set [2] (setting [7]), 11.5 ± 7.3 µM. The MIC was determined as 4.7 ± 1.7 µM in data set [3] (setting [8]) and 9.4 ± 3.4 µM in data set [4] (setting [9]). For the same compound, in the data set on VERO cells (ATCC CCL-81), the “CC50 VERO Cells” value was 310.9 ± 4.4 µM.
Turning to EWGRRMMGWRPGRRMMRRWW-NH2 [Ib-M5], the MBC was determined as 7.3 ± 2.6 µM in data set [1] (setting [6]) and 15.6 ± 7.7 µM in data set [2] (setting [7]). Besides, the MIC in data set [3] (setting [8]) worked out at 4.7 ± 1.7 µM; in data set [4] (setting [9]), 8.3 ± 3.2 µM. Also, in the data set on VERO cells (ATCC CCL-81), the “CC50 VERO Cells” value turned out to be 315.3 ± 49.1 µM.
The matching figures for EWGRRMMGWRPGRRMMRWWR-NH2 [Ib-M2]: 4.2 ± 1.6 µM, 6.8 ± 3.1 µM, 3.7 ± 1.28 µM, 4.7 ± 1.7 µM and 197.5 ± 2.4 µM.
lactoferricin: in the data set on E. coli, the MIC was 2 µM.
As for magainin 2, in the data set with E. coli, the MIC is 8 µM.
